Consider 88 molecules from ChEMBL document CHEMBL3137356, “MMV Box Cryptosporidium parvum screening set”.

This test relates to Cryptosporidium parvum. Briefly: MMV: Cryptosporidium parvum oocysts (Iowa Strain) were prepared for use by treatment with 10 mM HCl (37 degrees C, 10 min) followed by 2 mM sodium taurocholate in phosphate-buffered saline (PBS) with Ca2+ and Mg2+ (16 degrees C, 10 min) in order to stimulate excystation. The high-throughput screen was carried out by inoculating >90% confluent human ileocecal adenocarcinoma (HCT-8) cells (ATCC) with ~5.5 x 10^3 primed oocysts per well. Experimental compounds or DMSO (vehicle) were added three hours after infection, and cells were incubated for 48 hours. It counts as functional.

With `CCOC(=O)C1=C(c2ccccc2)N=c2sc(=Cc3cc(C)n(-c4ccc(F)cc4)c3C)c(=O)n2C1c1cccc(OC)c1OC` (stereo not drawn), the Inhibition is -76.69%.
`Cl.N=c1n(CCN2CCCCC2)c2ccccc2n1CC(O)c1cccc(Br)c1` (stereo not drawn): the Inhibition amounted to 3.872%.
On to `CC(C)CCNCC(O)Cn1c2ccccc2c2ccccc21.Cl` (stereo not drawn), for which the Inhibition turned out to be 46.75%.
For `CCOc1ccccc1CNC(=O)C1c2ccccc2C(=O)N(CC(C)C)C1c1cccs1` (stereo not drawn) the value was -30.75%; for `Cc1ccc(CN2CCC(C(=O)Nc3ccc(-c4cc5ccccc5[nH]4)cc3)CC2)o1`, 45.39%; for `CCOc1ccc2nc(C)cc(Nc3ccc(N(C)C)cc3)c2c1.Cl`, -13.24%.
`COc1cccc(C(=O)NC(c2ccc(C)cc2)c2cc(Cl)c3cccnc3c2O)c1` (stereo not drawn): the Inhibition is 59.18%.
For `CC(=O)c1sc(NC(=O)Nc2ccc(C)cc2C)nc1C` the value was -18.27%; for `COc1ccc(CCNC(=O)c2cc(S(=O)(=O)N3CC(C)CC(C)C3)ccc2Sc2ccc(F)cc2)cc1OC` (stereo not drawn), 16.29%.
Consider `O=C(CSc1ccc2nnc(-c3cccc(F)c3)n2n1)Nc1ccc2c(c1)OCO2`, for which the Inhibition is on record as -19.97%.
Turning to `COc1cccc(-c2nn(C)c3sc(C(=O)NCCN4CCN(c5ccccc5F)CC4)cc23)c1`, the Inhibition stood at 60.49%.
As for `Cc1cc(NC(=O)c2cccc(C(F)(F)F)c2)n(-c2nc(-c3ccc4c(c3)OCO4)cs2)n1`, the figure is -22.88%; as for `O=C(NC1CCN(Cc2ccccc2)CC1)c1cc2nc(-c3ccc(Cl)s3)cc(C(F)(F)F)n2n1`, -21.67%.
For the molecule `CCOc1ccccc1CN1CCc2nc3cc(C(C)(C)C)nn3c(O)c2C1`, the Inhibition is listed as -3.69%.
On to `O=C(Nc1ccc(F)c(Cl)c1)Nc1ccc(Cl)c(Cl)c1`, for which the Inhibition amounted to 36.98%.
For `CCOc1ccc(-n2cc(-c3ccccc3)c3c(SCc4cc(C)ccc4C)ncnc32)cc1` the value was -2.262%; for `CCC(C)NCC(O)(c1ccc(Cl)cc1)c1ccc(Cl)cc1` (stereo not drawn), -5.937%.
As for `O=C(O)C(=O)O.Oc1ccc(Br)cc1CN1CCN(Cc2cccc(F)c2)CC1`, the figure is -34.58%.
For `CC1CN(C(=O)c2sc3ccccc3c2Cl)CC(C)O1` (stereo not drawn) the value was 27%; for `COc1ccc(C2N(C)c3ccccc3N2C)cc1`, -12.31%; for `CCCCCCOC(=O)C1=C(C)NC(=O)NC1c1ccccc1F` (stereo not drawn), -26.01%.
`CCN1CCCC1CNc1[nH]cnc2c3cc(Cl)ccc3nc1-2` (stereo not drawn): the Inhibition was -14.57%.
Regarding `COc1ccc(C)c2sc(N(Cc3cccnc3)C(=O)c3ccc(C#N)cc3)nc12`, the Inhibition is recorded as -2.161%.
For `CCCn1c(=N)c(C(=O)NC2CCCCC2)cc2c(=O)n3cccc(C)c3nc21` the value was -27.29%; for `Cc1c(C)n(CC(O)CNC2CCCCC2C)c2ccccc12` (stereo not drawn), -20.79%; for `CC(C)=CCN1CCC(C(=O)Nc2ccc(-c3nc4ccccc4[nH]3)cc2)CC1`, -41.53%.
On to `Cc1cc(Nc2ccc(Cl)cc2)n2nc(C(F)(F)F)nc2n1`, for which the Inhibition is given as 36.64%.
For `Nc1ccc(-c2nc3cc(Cc4ccc5[nH]c(-c6ccc(N)cc6)nc5c4)ccc3[nH]2)cc1` the value was -51.86%; for `Cc1cc(NC(=O)C2c3ccccc3C(=O)N(CC(C)C)C2c2cccs2)no1` (stereo not drawn), -19.27%; for `CCOc1cc2c(cc1OCC)C(c1cc(Cl)c(O)c(OCC)c1)NCC2` (stereo not drawn), -10.58%.
As for `O=c1cc(NC2CCN(CCCc3ccccc3)CC2)c2cc(Cl)ccc2o1`, the figure is -2.261%; as for `CCOc1c(Cl)cc(CNC(C)C(O)c2ccccc2)cc1OC` (stereo not drawn), -2.917%; as for `N=c1n(CCN2CCCCC2)c2ccccc2n1CC(=O)c1ccc(Cl)c(Cl)c1`, -71.18%.
For `CCCN(CCC)CCCNC(=O)c1cc2c(-c3ccc(OC)c(OC)c3)nn(C)c2s1` the value was 32.69%; for `CCCCOC(=O)c1ccc(Nc2cc(C)nc3ccc(OC)cc23)cc1`, 12.32%; for `COc1ccccc1N1CCN(C(CNS(=O)(=O)c2ccc(Cl)cc2)c2cccnc2)CC1` (stereo not drawn), 38.78%.
`CN1CCN(c2nc(Nc3ccc(O)cc3)nc3ccccc23)CC1.Cl`: the Inhibition is -22.12%.
For the molecule `COc1cc(-c2nc(-c3ccc(Sc4ccccc4)cc3)c(-c3ccccc3)[nH]2)cc(OC)c1O`, the Inhibition was -39.67%.
As for `Cc1ccc(Nc2nc(NCCO)c3ccccc3n2)cc1C`, the figure is 34.33%.
For `CCCOCc1cc(CN2CCN(c3cccc(Cl)c3)CC2)c(O)c2ncccc12` the value was 58.2%; for `c1ccc(/C2=N/c3ccccc3/N=C(/c3ccccc3)c3ccccc32)cc1`, 8.997%.
For `COc1ccccc1CNC(=O)CCn1c(=O)[nH]c2ccsc2c1=O`, the Inhibition was -10.39%.
As for `CCOc1ccc2nc(C)cc(Nc3ccc(Br)cc3)c2c1`, the figure is -4.208%.
On to `CCOC(=O)c1cnc2c(C)cc(C)cc2c1Nc1ccc(OC)c(OC)c1`, for which the Inhibition is reported as -30.02%.
As for `COc1ccc(C(=O)C2CC2c2ccc(Cl)cc2)cc1` (stereo not drawn), the figure is -36.26%; as for `Oc1ccc(C(=C(Cl)Cl)c2ccc(O)cc2)cc1`, -24.26%; as for `Cl.Oc1ccccc1CNCC12CC3CC(CC(C3)C1)C2`, -10.2%.
As for `O=C(NC1CCCC1)c1ccc(N2CCC(NCc3cccc(C(F)(F)F)c3)CC2)cc1`, the figure is -29.41%.
For `O=C(NC1CCN(Cc2ccccc2)CC1)c1cc(-c2ccncc2)nc2ccc(Cl)cc12` the value was 13.62%.
Consider `Cc1ccc(-c2cc3nc4c(c(O)n3n2)CCCC4)cc1`, for which the Inhibition is recorded as 2.31%.
As for `Cc1cc(Nc2ccc3ccccc3c2)n2ncnc2n1`, the figure is -10.13%; as for `C=C(C)CCC(C)N1CCC(N2CCC(C(=O)NCCc3ccccc3)CC2)CC1` (stereo not drawn), -27.27%; as for `c1ccc(CNc2nc(Nc3ccccc3)nc3ccccc23)cc1`, 87.13%.
Regarding `CN(N=O)C1=C(NC2CCCCC2)C(=O)c2ccccc2C1=O`, the Inhibition was -6.459%.
Consider `CC1CC(C)CN(C(=O)c2ccc(Cl)cc2Cl)C1` (stereo not drawn), for which the Inhibition was -45.44%.
As for `COCCn1c(C)nc2ccccc2c1=O`, the figure is -17.93%; as for `CCCc1c(C)nc2ccccc2c1O`, -14.82%.
In the case of `CCOC(=O)c1c(NC(=O)c2ccccc2)sc2c(O)c(CN(CC)CC)ccc12`, the Inhibition is given as 50.63%.
For `Oc1c(CN2CCN(c3ccccc3F)CC2)cc(Br)c2cccnc12` the value was 61.72%; for `CCc1c(C)c(=N)c2ccccc2n1C.I`, 11.41%.
On to `O=C(NCc1ccco1)C1CCN(S(=O)(=O)c2ccc(Br)cc2)CC1`, for which the Inhibition came to 29.65%.
Turning to `CCCCCCn1c(=N)n(CC(O)COc2cccc(C)c2)c2ccccc21.Cl` (stereo not drawn), the Inhibition worked out at 6.838%.
For `Cc1ccc(-c2cc3c(nn2)-c2ccccc2C3=O)cc1` the value was -55.29%; for `Oc1ccccc1CN1CCC2(CCCN(Cc3ccccc3F)C2)C1` (stereo not drawn), -2.723%; for `O=C1c2ccccc2C2=Nc3ccccc3SC(c3cccc(F)c3)C12` (stereo not drawn), -5.793%.
For `O=C(Nc1cccc(C2=NCCN2)c1)Nc1cccc(C2=NCCN2)c1` [IMIDOCARB] the value was 9.453%; for `CC(C)(C)c1ccc2c(c1)CN(Cc1ccc(Cl)cc1)CO2`, -0.2226%; for `Cc1ccccc1OCCSc1nc2ccc(NC(=O)c3ccccc3)cc2s1`, 17.58%.
For `Cc1ccc(Cn2c(N3CCC(C(=O)NCc4cccs4)CC3)nc3ccccc32)cc1` the value was -4.981%; for `COc1ccc(C(=O)NC(c2ccc(Cl)cc2Cl)c2cc(Cl)c3cccnc3c2O)cc1` (stereo not drawn), 66.57%; for `Oc1c(C(Nc2ccccn2)c2cccc(Oc3ccccc3)c2)ccc2cccnc12` (stereo not drawn), 73.93%.
With `COCCN(C(=O)Cc1cccs1)C(C(=O)NCc1ccc(OC)cc1)c1ccc(C(C)C)cc1` (stereo not drawn), the Inhibition is listed as 3.107%.
For `O=C(CCc1ccco1)NC1CCN(CC2(c3ccc(Cl)cc3)CCC2)CC1` the value was -27.18%; for `Cl.Clc1cc(Br)ccc1-c1ccc(CNCC2CCNCC2)o1`, 26.78%.
`CCOC(=O)C1(Cc2ccccc2)CCN(Cc2cccc(OC)c2O)CC1`: the Inhibition is -29.57%.
For the molecule `COc1ccc(N2CCN(C(CNC(=O)C3CCCCC3)c3ccc4c(c3)OCO4)CC2)cc1` (stereo not drawn), the Inhibition is listed as -25.24%.
For `COc1ccc(CN2CCCC(C(=O)c3ccc(C(F)(F)F)cc3)C2)c(O)c1` (stereo not drawn) the value was -4.732%.
As for `Cl.Cn1c(=O)n(C)c2cc(CNCCNc3ccnc4cc(Cl)ccc34)ccc21`, the figure is 20.67%.
As for `Oc1c2c(nc3cc(-c4ccccc4)nn13)CCCC2`, the figure is 37.02%; as for `CN1CCN(c2c3c(c(C#N)c4nc5ccccc5n24)CCC3)CC1`, -1.609%.
With `COc1ccc(NC(=O)C2c3ccccc3C(=O)N(CC(C)C)C2c2cccs2)cc1Cl` (stereo not drawn), the Inhibition is -10.67%.
With `COc1cc2c3cc1Oc1c(OC)c(OC)cc4c1C(Cc1ccc(O)c(c1)Oc1ccc(cc1)CC3N(C)CC2)N(C)CC4.Cl` (stereo not drawn), the Inhibition is -14.29%.
For `CCOc1cc(Cl)c(C(C)NC(=O)c2cccc(OC)c2)cc1OCC` (stereo not drawn) the value was -11.62%.
As for `CCCCCCc1cc2cc(-c3csc(C=Cc4ccccc4)n3)c(=O)oc2cc1O`, the figure is 10.86%.
For `COc1ccc(C2Sc3ccccc3N=C3C2=C(O)c2ccccc23)cc1` (stereo not drawn) the value was 19.55%.
As to `CC(Oc1ccc(NC(=O)c2cccs2)cc1)C(=O)c1ccc(Cl)cc1` (stereo not drawn), the Inhibition was found to be 19.15%.
For `COc1ccc2c(c1)C1(Nc3ccccc3-c3nc4ccccc4n31)C(=O)N2` (stereo not drawn) the value was -27.19%; for `COc1ccc(C(=O)C(CCC(CNC(C)(C)C)C(=O)c2ccc(OC)cc2)CNC(C)(C)C)cc1` (stereo not drawn), -20.25%.
